# Experiments:
# [1] = target: G protein-coupled receptor kinase 4 (Homo sapiens) (UniProt P32298); assay: Inhibition of human GRK4 using casein as substrate at 1 uM in presence of 32P-ATP by Hotspot assay relative to control; values are per cent of control
# [2] = target: Angiopoietin-1 receptor (Homo sapiens) (UniProt Q02763); assay: Inhibition of human TIE2/TEK using poly[Glu:Tyr] (4:1) as substrate at 1 uM in presence of 32P-ATP by Hotspot assay relative to control; values are per cent of control
# Sequence of Angiopoietin-1 receptor (Homo sapiens) (Q02763 whole entry): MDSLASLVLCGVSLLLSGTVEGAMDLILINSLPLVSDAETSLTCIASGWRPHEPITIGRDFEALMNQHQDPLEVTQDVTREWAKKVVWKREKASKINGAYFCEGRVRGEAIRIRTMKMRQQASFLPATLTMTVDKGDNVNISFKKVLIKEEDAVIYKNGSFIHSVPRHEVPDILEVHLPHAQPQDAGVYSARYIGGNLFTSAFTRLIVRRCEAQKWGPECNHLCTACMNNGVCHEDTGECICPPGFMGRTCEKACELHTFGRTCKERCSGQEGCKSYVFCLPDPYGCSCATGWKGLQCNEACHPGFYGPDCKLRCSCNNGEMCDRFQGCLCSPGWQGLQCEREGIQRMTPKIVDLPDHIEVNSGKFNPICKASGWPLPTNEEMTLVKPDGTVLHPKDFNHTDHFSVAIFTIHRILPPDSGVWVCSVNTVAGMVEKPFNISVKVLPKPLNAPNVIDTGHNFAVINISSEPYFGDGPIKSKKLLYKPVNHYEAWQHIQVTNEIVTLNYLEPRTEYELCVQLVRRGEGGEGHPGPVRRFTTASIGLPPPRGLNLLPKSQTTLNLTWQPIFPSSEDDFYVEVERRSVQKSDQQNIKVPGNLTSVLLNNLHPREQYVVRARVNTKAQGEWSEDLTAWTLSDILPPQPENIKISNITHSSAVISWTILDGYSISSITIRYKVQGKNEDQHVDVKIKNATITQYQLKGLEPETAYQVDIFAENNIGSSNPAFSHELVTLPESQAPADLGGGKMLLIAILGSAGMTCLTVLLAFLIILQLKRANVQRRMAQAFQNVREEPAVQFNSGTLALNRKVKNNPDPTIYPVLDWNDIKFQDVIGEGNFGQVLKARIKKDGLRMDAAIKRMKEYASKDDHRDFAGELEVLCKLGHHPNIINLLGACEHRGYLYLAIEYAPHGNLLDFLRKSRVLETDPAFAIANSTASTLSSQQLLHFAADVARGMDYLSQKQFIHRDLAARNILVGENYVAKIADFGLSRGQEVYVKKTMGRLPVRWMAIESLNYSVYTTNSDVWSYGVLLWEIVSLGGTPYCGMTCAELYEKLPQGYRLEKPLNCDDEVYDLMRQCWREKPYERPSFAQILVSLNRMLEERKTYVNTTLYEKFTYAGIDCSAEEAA
# [3] = target: T1, Mitogen-activated protein kinase kinase kinase 5 (Homo sapiens) (UniProt Q99683); assay: Inhibition of human ASK1/MAP3K5 using myelin basic protein as substrate at 1 uM in presence of 32P-ATP by Hotspot assay relative to control; values are per cent of control
# T1 sequence (whole entry): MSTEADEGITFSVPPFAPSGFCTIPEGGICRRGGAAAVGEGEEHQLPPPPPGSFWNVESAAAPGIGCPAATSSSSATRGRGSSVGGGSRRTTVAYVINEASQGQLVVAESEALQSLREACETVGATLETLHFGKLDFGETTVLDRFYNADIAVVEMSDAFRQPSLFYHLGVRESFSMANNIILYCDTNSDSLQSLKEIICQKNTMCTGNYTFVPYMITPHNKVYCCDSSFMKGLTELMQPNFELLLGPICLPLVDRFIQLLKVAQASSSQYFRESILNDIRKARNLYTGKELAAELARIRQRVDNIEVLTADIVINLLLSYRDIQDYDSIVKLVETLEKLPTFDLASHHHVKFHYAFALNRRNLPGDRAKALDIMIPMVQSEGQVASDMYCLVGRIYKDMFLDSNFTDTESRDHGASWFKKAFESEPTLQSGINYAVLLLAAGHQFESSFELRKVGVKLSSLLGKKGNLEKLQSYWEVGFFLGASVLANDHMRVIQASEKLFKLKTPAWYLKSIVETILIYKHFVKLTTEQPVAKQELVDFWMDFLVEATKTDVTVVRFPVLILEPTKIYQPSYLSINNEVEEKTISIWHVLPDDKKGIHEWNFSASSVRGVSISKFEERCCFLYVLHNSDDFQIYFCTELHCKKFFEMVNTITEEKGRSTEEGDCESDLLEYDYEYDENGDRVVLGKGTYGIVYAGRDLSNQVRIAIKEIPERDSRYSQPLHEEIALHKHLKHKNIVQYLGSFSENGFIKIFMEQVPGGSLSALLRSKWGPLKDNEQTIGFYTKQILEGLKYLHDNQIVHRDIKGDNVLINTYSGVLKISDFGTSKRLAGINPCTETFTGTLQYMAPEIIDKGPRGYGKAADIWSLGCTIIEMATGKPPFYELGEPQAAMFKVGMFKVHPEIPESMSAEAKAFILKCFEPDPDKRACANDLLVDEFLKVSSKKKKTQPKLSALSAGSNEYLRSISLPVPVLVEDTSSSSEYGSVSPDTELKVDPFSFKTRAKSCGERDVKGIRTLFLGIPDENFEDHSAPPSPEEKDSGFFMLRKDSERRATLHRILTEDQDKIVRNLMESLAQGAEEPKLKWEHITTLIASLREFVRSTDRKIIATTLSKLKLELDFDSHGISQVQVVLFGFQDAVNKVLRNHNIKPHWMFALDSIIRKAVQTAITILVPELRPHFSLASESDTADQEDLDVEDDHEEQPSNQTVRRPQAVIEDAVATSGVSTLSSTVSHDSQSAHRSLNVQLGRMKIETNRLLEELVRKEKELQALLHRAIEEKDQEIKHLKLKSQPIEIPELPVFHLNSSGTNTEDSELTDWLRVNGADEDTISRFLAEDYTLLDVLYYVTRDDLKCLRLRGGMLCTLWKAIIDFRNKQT
# [4] = target: T2, Serine/threonine-protein kinase BRSK1 (Homo sapiens) (UniProt Q8TDC3); assay: Inhibition of human BRSK1 using KKKVSRSGLYRSPSMPENLNRPR as substrate at 1 uM in presence of 32P-ATP by Hotspot assay relative to control; values are per cent of control
# T2 sequence (whole entry): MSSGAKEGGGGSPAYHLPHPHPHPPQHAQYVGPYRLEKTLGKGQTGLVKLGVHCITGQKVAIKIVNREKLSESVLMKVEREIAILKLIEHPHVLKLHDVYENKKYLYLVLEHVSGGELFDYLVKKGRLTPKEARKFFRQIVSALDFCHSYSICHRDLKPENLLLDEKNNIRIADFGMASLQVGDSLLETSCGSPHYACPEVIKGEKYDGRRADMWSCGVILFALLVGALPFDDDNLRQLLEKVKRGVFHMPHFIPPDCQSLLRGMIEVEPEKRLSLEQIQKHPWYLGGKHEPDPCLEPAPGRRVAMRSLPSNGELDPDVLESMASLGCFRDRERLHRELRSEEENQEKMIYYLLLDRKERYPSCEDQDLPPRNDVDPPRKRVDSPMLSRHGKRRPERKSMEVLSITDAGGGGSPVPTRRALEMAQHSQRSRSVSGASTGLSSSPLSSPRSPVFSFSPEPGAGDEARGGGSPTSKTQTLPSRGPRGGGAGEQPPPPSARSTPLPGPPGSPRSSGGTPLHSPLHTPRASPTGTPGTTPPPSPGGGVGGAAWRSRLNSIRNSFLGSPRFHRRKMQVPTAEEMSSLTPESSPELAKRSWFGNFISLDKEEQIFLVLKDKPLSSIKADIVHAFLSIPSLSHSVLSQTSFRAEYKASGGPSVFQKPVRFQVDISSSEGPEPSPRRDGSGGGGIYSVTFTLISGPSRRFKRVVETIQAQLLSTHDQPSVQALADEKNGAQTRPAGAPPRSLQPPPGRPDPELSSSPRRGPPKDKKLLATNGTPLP
# [5] = target: Mitogen-activated protein kinase kinase kinase 20 (Homo sapiens) (UniProt Q9NYL2); assay: Inhibition of human ZAK/MLTK using myelin basic protein as substrate at 1 uM in presence of 32P-ATP by Hotspot assay relative to control; values are per cent of control
# Sequence of Mitogen-activated protein kinase kinase kinase 20 (Homo sapiens) (Q9NYL2 2-800 limits assumed): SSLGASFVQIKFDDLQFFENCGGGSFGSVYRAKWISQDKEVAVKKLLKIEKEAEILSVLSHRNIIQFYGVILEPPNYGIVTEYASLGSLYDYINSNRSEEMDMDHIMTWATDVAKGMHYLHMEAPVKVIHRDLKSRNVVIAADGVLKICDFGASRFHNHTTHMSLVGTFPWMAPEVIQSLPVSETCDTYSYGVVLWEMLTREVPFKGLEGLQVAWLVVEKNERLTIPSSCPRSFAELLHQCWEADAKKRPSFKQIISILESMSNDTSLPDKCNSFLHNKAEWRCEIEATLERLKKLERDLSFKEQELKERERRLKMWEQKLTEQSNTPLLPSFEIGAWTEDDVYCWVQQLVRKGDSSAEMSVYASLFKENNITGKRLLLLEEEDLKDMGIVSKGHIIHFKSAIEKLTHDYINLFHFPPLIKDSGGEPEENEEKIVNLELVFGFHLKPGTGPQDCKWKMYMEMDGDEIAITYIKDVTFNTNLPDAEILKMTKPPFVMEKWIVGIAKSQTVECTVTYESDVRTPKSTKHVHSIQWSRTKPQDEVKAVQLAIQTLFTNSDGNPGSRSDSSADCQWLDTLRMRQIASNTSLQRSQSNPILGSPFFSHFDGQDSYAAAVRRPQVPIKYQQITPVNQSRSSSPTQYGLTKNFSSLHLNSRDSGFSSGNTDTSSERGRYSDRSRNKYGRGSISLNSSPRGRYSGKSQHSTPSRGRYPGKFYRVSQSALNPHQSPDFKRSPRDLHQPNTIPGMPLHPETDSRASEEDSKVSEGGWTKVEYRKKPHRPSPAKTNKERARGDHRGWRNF
# [6] = target: Proto-oncogene tyrosine-protein kinase Src (Homo sapiens) (UniProt P12931); assay: Inhibition of human c-Src using poly[Glu:Tyr] (4:1) as substrate at 1 uM in presence of 32P-ATP by Hotspot assay relative to control; values are per cent of control
# Sequence of Proto-oncogene tyrosine-protein kinase Src (Homo sapiens) (P12931 2-536 limits assumed): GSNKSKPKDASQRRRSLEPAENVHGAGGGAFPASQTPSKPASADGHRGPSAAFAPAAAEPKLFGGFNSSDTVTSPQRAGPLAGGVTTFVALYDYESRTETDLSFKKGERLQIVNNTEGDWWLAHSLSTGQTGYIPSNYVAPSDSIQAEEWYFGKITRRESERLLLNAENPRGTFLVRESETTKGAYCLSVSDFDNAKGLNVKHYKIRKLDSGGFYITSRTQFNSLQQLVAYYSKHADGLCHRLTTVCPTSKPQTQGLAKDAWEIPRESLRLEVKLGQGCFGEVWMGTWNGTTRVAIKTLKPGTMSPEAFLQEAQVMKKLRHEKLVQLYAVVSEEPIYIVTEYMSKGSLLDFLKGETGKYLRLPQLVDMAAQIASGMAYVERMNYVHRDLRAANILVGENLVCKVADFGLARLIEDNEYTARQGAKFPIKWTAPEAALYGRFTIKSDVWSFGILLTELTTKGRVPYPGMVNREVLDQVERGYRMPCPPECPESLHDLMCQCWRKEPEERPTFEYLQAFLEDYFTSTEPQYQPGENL
# [7] = target: Insulin-like growth factor 1 receptor (Homo sapiens) (UniProt P08069); assay: Inhibition of human IGF1R using KKKSPGEYVNIEFG as substrate at 1 uM in presence of 32P-ATP by Hotspot assay relative to control; values are per cent of control
# Sequence of Insulin-like growth factor 1 receptor (Homo sapiens) (P08069 31-736 limits assumed): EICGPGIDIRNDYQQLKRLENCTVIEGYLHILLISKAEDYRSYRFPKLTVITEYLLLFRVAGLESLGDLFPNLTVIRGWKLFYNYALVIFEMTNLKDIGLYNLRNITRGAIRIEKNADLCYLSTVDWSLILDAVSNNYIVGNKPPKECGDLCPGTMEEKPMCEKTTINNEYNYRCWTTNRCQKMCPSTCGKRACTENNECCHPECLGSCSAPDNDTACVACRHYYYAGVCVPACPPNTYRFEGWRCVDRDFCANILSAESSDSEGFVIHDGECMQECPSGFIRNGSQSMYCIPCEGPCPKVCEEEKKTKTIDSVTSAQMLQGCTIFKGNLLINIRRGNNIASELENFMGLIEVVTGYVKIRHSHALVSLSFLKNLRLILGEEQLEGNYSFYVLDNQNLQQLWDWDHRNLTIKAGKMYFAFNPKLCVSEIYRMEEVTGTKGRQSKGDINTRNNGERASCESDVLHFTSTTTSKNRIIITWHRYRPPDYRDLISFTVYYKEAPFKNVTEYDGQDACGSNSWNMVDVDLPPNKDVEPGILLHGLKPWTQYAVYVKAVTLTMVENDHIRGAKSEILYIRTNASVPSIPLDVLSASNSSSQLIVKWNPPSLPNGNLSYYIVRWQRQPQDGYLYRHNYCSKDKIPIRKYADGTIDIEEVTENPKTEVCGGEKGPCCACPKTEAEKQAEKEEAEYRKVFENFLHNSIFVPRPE
# Sequence of Insulin-like growth factor 1 receptor (Homo sapiens) (P08069 741-1367 limits assumed): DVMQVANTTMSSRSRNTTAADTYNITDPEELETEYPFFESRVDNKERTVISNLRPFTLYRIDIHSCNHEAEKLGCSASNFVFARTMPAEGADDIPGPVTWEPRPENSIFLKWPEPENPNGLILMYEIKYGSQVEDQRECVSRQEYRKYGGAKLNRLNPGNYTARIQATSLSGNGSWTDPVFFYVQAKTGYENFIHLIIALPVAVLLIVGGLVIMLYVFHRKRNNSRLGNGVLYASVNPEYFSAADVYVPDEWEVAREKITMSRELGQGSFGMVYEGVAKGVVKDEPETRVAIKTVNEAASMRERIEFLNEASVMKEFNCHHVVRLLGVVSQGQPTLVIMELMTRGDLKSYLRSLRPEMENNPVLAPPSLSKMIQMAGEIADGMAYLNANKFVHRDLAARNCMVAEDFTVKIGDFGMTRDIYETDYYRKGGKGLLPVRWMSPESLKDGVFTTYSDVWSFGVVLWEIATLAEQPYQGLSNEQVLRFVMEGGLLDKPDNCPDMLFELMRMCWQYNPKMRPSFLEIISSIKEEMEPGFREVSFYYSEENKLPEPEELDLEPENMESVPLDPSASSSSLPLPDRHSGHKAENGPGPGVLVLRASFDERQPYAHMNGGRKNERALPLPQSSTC
# Sequence of G protein-coupled receptor kinase 4 (Homo sapiens) (P32298 whole entry, looked up): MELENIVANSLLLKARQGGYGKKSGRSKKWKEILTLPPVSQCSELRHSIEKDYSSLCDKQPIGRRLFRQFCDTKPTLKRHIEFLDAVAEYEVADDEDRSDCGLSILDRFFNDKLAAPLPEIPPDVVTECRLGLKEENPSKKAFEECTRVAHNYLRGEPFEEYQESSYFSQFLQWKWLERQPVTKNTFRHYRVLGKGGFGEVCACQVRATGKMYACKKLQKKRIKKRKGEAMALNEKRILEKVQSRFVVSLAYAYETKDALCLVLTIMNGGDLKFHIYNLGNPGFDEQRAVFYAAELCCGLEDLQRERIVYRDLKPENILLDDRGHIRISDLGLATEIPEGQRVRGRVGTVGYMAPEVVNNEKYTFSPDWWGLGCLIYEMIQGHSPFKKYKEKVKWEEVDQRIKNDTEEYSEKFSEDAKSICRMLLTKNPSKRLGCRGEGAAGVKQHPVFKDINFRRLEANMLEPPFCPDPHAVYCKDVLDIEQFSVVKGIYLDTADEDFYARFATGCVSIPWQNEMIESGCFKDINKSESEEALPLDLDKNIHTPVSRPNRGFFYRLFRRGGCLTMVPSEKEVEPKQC
Structure (SMILES),residual activity [1] [%],residual activity [2] [%],residual activity [3] [%],residual activity [4] [%],residual activity [5] [%],residual activity [6] [%],residual activity [7] [%]
Cc1cc(-c2cnc(N)c3c(-c4ccc5scnc5c4)csc23)n(C)n1,97.2,94.2,102,101,21.2,37.1,101
CNC(=O)c1ccc2c(c1)ncn2-c1ccc(CC(=O)OC(C)(C)C)cc1,94.6,87.2,96.7,96.6,41.7,80,97.6
CC(C)S(=O)(=O)c1ccc2nccc(Nc3ccc4scnc4c3)c2c1,100,98.7,97.6,101,94.5,28.3,100
